Patent publication US12637469B2, “1H-pyrazole derivative and application thereof as dual target inhibitor of Syk and VEGFR2” (Ocumension Therapeutics (Suzhou) Co., Ltd., priority 2020, dated 2026)

Assays:
[1] = Pharmacokinetic evaluation of ocular administration to mouse (cornea and plasma exposure); type: in vivo, C57BL/6 mice; settings: eye drop, 0.1 mg/animal
Procedure: In order to investigate the eye-to-blood ratio of the in vivo exposure amounts of the compound after ocular administration thereof, LC-MS/MS method was used in this study to determine the exposure amounts of compound 1 in cornea and plasma after the ocular administration of the compound 1 to a mouse, where compound screening and analysis were conducted by using the drug concentration at the same time point as an indicator.
C57BL/6 mice, weighing 18-20 g, were randomly divided into 4 groups after 3-5 days of acclimatization, with each group including three mice, and the mice were administered by eye drops at 5 μL for each eye.
The test animals (C57BL/6 mice) were not fasted before administration, but drank water freely before and during the experiment.
About 0.05 mL of blood was collected from saphenous vein at 1 hour and 3 hours following the eye drop administration, anticoagulated with commercial EDTA-K2, and transferred to a centrifuge for centrifugation. After blood sampling from saphenous vein, the corneas were collected under isoflurane anesthesia. At each of the time points, the plasma and corneas of the mice in the same group were pooled for detection.
Plasma: within 30 minutes the plasma was transferred to be subject to centrifugation at 4° C., 3200 g for 10 minutes, and 20 μL of plasma was taken from each mouse. At each time point, the plasma of the mice in the same group was pooled for detection.
Cornea: the cornea was removed, rinsed twice with pre-cooled normal saline, dried with a paper towel, and put into a 1.5 mL centrifuge tube, weighed with an analytical balance by a peeling method, and finally the body weight was weighed. At each time point, the corneas of the mice in the same group were pooled for detection.
Corneal homogenization method: 1 g of cornea was added to 9 mL of pre-cooled methanol: 15 mM phosphate buffer solution=1:2, an ultrasonic cell disruptor (No. 2 amplitude rod, amplitude 50%, working for 5 s, stopping for 5 s, and ultrasonic treatment for 3 min) was used.

CYP2C9 = target: T1, CYP2C9 (Homo sapiens, UniProt P11712); assay: Inhibition of cytochrome P450 enzymes in human liver microsomes (LC-MS/MS); type: in vitro ADME
T1 construct: human liver microsome working solution was prepared; from tissue; host or cells: human liver microsomes
T1 sequence (P11712 whole entry): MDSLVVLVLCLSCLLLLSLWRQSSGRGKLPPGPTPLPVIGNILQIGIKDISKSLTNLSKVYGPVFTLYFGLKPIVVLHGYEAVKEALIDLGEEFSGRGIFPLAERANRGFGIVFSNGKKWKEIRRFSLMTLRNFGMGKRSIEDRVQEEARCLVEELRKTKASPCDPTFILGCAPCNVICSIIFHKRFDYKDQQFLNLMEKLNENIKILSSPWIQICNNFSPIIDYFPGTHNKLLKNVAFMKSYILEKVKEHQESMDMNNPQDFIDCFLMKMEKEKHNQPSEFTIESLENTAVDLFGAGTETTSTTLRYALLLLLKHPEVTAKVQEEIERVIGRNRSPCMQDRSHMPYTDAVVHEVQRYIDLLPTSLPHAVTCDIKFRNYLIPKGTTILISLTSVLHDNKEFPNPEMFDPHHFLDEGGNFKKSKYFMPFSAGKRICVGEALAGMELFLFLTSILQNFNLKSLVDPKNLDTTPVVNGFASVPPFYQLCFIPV
Procedure: (§1) In order to investigate the activity of the compound on human liver microsomal CYP450 enzyme, Liquid Chromatography-Mass Spectrometry/Mass Spectrometry (LC-MS/MS) method was used in this study to determine the inhibitory effect of compound 1 on five main subtypes (CYP1A2, 2C9, 2C19, 2D6, 3A4) of human hepatocyte CYP450 enzyme, and compound screening and analysis were conducted using IC50 value as the indicator.
(§2) • 1) A test compound and a standard inhibitor working solution (100×) were prepared; • 2) microsomes were taken out of a −80° C. freezer, thawed on ice, labeled with the date, and put back in the freezer immediately after use; • 3) 20 microliters of matrix solution was added to the corresponding wells; • 4) 20 microliters of phosphate buffered saline was added to the blank wells; • 5) 2 microliters of the test compound and positive control working solution were added to the corresponding wells; • 6) 2 microliters of solvent was added to each of the inhibitor-free wells and the blank wells; • 7) human liver microsome working solution was prepared; • 8) 158 microliters of HLM working solution was added to all wells of the incubation plate; • 9) the plate was heated in a 37° C. water bath for about 10 minutes; • 10) NADPH cofactor solution was prepared; • 11) 20 microliters of NADPH cofactor was added to all of the incubation wells; • 12) all CYPs were subjected to mixed culture in a 37° C. water bath for 10 minutes; • 13) at a certain point in time, the reaction was stopped by adding 400 microliters of cold solution (200 ng/mL of tolbutamide in acetonitrile and 200 ng/mL of Labetalol in acetonitrile); • 14) the samples were centrifuged at 4000 rpm for 20 minutes to precipitate proteins; • 15) 200 microliters of supernatant was transferred into 100 microliters of high performance liquid chromatography water, and shaked for 10 minutes; • 16) LC/MS/MS analysis was started.

CYP3A4 = target: T2, CYP3A4 (Homo sapiens, UniProt P08684); assay: as above; type: in vitro ADME
T2 construct: human liver microsome working solution was prepared; from tissue; host or cells: human liver microsomes
T2 sequence (P08684 whole entry): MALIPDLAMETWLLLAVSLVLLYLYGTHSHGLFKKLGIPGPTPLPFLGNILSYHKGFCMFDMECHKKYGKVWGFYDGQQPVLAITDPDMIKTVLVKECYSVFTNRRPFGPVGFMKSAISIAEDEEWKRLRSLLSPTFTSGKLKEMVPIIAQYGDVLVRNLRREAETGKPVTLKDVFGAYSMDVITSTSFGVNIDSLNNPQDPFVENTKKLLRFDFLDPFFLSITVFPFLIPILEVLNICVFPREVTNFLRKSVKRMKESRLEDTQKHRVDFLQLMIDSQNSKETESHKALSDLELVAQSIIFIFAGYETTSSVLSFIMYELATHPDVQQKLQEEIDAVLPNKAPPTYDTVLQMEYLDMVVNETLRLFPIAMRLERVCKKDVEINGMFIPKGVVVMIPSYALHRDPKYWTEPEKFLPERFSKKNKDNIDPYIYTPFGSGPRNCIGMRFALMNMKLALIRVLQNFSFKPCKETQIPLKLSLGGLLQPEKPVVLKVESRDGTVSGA
Procedure: as §1, §2

CYP1A2 = target: T3, CYP1A2 (Homo sapiens, UniProt P05177); assay: as above; type: in vitro ADME
T3 construct: human liver microsome working solution was prepared; from tissue; host or cells: human liver microsomes
T3 sequence (P05177 whole entry): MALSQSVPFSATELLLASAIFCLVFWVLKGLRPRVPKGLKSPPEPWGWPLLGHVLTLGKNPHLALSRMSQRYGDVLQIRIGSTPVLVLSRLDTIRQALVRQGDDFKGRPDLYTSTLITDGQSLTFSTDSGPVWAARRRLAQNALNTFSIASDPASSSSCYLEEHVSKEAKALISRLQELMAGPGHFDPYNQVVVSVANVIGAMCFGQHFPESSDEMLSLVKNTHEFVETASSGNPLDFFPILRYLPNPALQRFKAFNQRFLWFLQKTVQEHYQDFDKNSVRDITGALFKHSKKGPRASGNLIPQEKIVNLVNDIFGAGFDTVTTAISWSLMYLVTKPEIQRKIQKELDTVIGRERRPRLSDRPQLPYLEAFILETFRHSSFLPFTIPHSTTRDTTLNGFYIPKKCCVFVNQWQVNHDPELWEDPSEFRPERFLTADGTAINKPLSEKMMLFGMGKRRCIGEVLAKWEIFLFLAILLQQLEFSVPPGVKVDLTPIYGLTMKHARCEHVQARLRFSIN
Procedure: as §1, §2

Syk kinase = target: T4, Syk kinase (Homo sapiens, UniProt P43405); assay: In vitro inhibitory effect on Syk kinase (HTRF enzymatic experiment); type: biochemical; settings: ATP 2 μM, read-out: IC50 (nM) for inhibition of Syk enzyme
T4 construct: purchased Invitrogen PV3857
Description: The interaction between the substrate and the enzyme was detected by HTRF, using the IC50 value of the compound as an indicator to evaluate the inhibitory effect of the compound on Syk kinase.
• Syk kinase (Invitrogen, PV3857) • DTT (Sigma #43815) • ATP (Sigma #A7699) • MgCl2 (Sigma #63020) • MnCl2 (Sigma #M1787) • EDTA (Invitrogen #15575-020) • HEPES Buffer (Invitrogen #15630-080) • HTRF® KinEASE™ TK (Cisbio #62TKOPEC, 20000 tests) • Low volume, 384-well, white polystyrene plate (Greiner #784075) • 384 Well Microplates (Greiner #781946) • Centrifuge (Eppendorf #5810R) • Pipette (Eppendorf) • Pipette (Greiner) • Pipette gun (Eppendorf) • Mutidorp Pipette • POD 810 Plate Assembler Automatic Microplate Pretreatment System • Envision Reader • Experimental Steps and Methods: • a) Compound dilution and plate-making: • 1) The compound powder was weighed, dissolved in a certain amount of DMSO at an initial concentration of 10 mM. • 2) The compound was diluted to a concentration of 0.74 mM, and plated with POD18, 135 nL per well, the starting compound concentration was 10 μM, and there were 11 concentration points, with 3-fold descending serial dilutions. • b) Enzyme-substrate reaction stage: • 1) Preparation and dilution of the experimental buffer: the 5×HTRF Buffer in the kit was diluted to 1×, and specified amounts of DTT and MgCl2 solutions were added for use. • 2) SYK enzyme reaction solution was prepared with 1×HTRF Buffer so that the final reaction concentration of SYK kinase was 0.0156 ng/μL. • 3) TK-Substrate-biotin/ATP mixture was prepared so that the final substrate concentration was controlled at 0.2 μM. ATP concentration was controlled at 2 μM. • 4) The solution and the mixture were added with a Mutidorp pipette, SYK enzyme solution and TK-Substrate-biotin/ATP mixture were each added 5 μL per well, and incubated with 23 solution for 1 hour. • c) Detection stage: • 1) 13.33 mL of ethylenediaminetetraacetic acid solution was added to the detection buffer of the kit, and specified amounts of Eu-labeled antibody and XL-665 were added to prepare the detection solution. • 2) The solution was added with a Mutidorp pipette, 10 μL of detection solution per well, and incubated with 23 solution for 1 hour. The reaction of the enzyme and substrate mixture was stopped. • 3) After centrifugation, the reading was obtained on Envision. • d) Data analyzation: the data was analyzed using XL-Fit and the IC50 value of the compound was calculated.

SMILES: c1cn2c(n1)c(Nc1ccc(N3CCOCC3)cc1)nc1ccc(-c3cn[nH]c3)cc12 [Compound 1]
- Kp at 1 h ([1]; C57BL/6, cornea / plasma, other: eye drops (ocular administration), 1 hour, read-out: eye-to-blood ratio): 641
- Kp at 3 h ([1]; C57BL/6, cornea / plasma, other: eye drops (ocular administration), 3 hours, read-out: eye-to-blood ratio): 427
- concentration at 1 h ([1]; C57BL/6, plasma, other: eye drops (ocular administration), 1 hour, read-out: Drug concentration in plasma): 10.4 nM
- concentration at 3 h ([1]; C57BL/6, plasma, other: eye drops (ocular administration), 3 hours, read-out: Drug concentration in plasma): 6.8 nM
- Drug concentration in corneal ([1]; 1 hour): 6670 nmol/kg
- Drug concentration in corneal ([1]; 3 hours): 2910 nmol/kg
- IC50 (CYP2C9): > 50 nM
- IC50 (CYP3A4): > 50 nM
- IC50 (CYP1A2): > 50 nM
- IC50 (Syk kinase): 15 nM
